Results as given in US20220389058A1, “PEPTIDES AND COMPOSITIONS FOR USE IN COSMETICS AND MEDICINE” (LIPOTRUE, S.L., priority 2019, published 2022).

Columns and labels:
Type in all cases: cell-based, Human
HUVECs = experiment: Genes related with response to sleep deprivation, RT-qPCR in HUVEC (Example 16); conditions: 0.01 mg/ml, 24 hours
Method: (§1) A stock solution of the peptide was prepared in water at 1 mg/mL. Working solution was freshly prepared at the specified concentration from stock solution in the corresponding supplemented medium.
RNA (ribonucleic acid) extraction and RT-qPCR (reverse transcription quantitative polymerase chain reaction) were performed. […]
Cells were finally lysed, and replicates were pooled together for RNA extraction using Qiagen RNeasy Mini kit following manufacturer's instructions. […] (Annealing and extension) (Arya, M., Shergill, I. S., Williamson, M., Gommersall, L., Arya, N., Patel, H. R. (2005) Basic principles of real-time quantitative PCR. Expert Rev. Mol. Diagn.; 5(2):209-19; and Jozefczuk, J. and Adjaye, J. (2011) Quantitative real-time PCR-based analysis of gene expression. Methods Enzymol. 500; 99-109).
The obtained data was analysed using the ΔΔCt method, which provides the target gene expression values as fold changes in the treated sample compared with an untreated basal sample. […]

HEKa cells = experiment: Expression of genes related to epidermal cell cohesion, RT-qPCR in HEKa (Example 9); conditions: 0.01 mg/mL, 24 hours
Method: as §1
RNA (ribonucleic acid) extraction and RT-qPCR (reverse transcription quantitative polymerase chain reaction) were performed. Briefly, HEKa cells were seeded in duplicate (n=2) in 6-well plates at a density of 4×10^5 cells/well and maintained at standard culture conditions (Medium Epilife supplemented with 1% (v/v) EDGS and 1% (v/v) penicillin/streptomycin; 37° C., 95% room humidity, 5% CO2) for 24 hours.
Then, cells were treated with peptide Ac-SEQ ID NO: 1-NH2, Ac-SEQ ID NO: 2-NH2 or Ac-SEQ ID NO: 3-NH2 at the concentration of 0.01 mg/mL for 24 hours. Untreated cells were used as basal or negative control.
(§2) Cells were finally lysed, and replicates were pooled together for RNA extraction using Qiagen RNeasy Mini kit following manufacturer's instructions. Purified RNAs were used to generate the corresponding cDNAs (complementary deoxyribonucleic acids) by reverse transcription using a commercial kit High capacity cDNA reverse transcription kit (Applied Biosystems) which served as templates for amplification. RT-qPCR was performed with the panel of appropriate TaqMan assay probes for genes shown in table 1 (plus GAPDH—Glyceraldehyde 3-phosphate dehydrogenase—that was used as housekeeping gene) and 2×gene expression Master Mix using StepOne plus Real-Time PCR instrument. Amplification included 40 cycles of: 15 seconds at 95° C. (denaturation) and 1 minute at 60° C. (Annealing and extension) (Arya, M., Shergill, I. S., Williamson, M., Gommersall, L., Arya, N., Patel, H. R. (2005) Basic principles of real-time quantitative PCR. Expert Rev. Mol. Diagn.; 5(2):209-19; and Jozefczuk, J. and Adjaye, J. (2011) Quantitative real-time PCR-based analysis of gene expression. Methods Enzymol. 500; 99-109).
(§3) The obtained data was analysed using the ΔΔCt method, which provides the target gene expression values as fold changes in the treated sample compared with an untreated basal sample. Both samples were normalized with the relative expression of a housekeeping gene GAPDH (Glyceraldehyde 3-phosphate dehydrogenase).

HDFa cells = experiment: Expression of genes related with collagen production and extracellular matrix, RT-qPCR in HDFa (Example 10); conditions: 0.01 mg/mL
Method: as §1
RNA (ribonucleic acid) extraction and RT-qPCR (reverse transcription quantitative polymerase chain reaction) were performed. Briefly, HDFa cells were seeded in duplicate (n=2) in 6-well plates at a density of 4×10^5 cells/well and maintained at standard culture conditions (106 Medium supplemented with 1% (v/v) LSGS; 37° C., 95% room humidity, 5% CO2) for 24 hours. Then, cells were treated with peptide Ac-SEQ ID NO: 1-NH2 at the concentration of 0.01 mg/mL for 24 and 48 hours. Untreated cells were used as basal or negative control.
as §2, with “table 5” for “table 1”
as §3

Ac-Arg-Arg-Gln-Met-Arg-Glu-NH2 (Ac-RRQMRE-NH2) [Ac-SEQ ID NO: 1-NH2]
NFKB1 Fold change between treated cells and basal control (HUVECs): −1.24 Fold change
CDSN Fold change between treated cells and basal control (HEKa cells): 1.46 Fold change
CLDN1 Fold change between treated cells and basal control (HEKa cells): 1.57 Fold change
CLDN4 Fold change between treated cells and basal control (HEKa cells): 2.64 Fold change
DSC2 Fold change between treated cells and basal control (HEKa cells): 1.23 Fold change
DSP Fold change between treated cells and basal control (HEKa cells): 1.28 Fold change
JUP Fold change between treated cells and basal control (HEKa cells): 1.42 Fold change
OCLN Fold change between treated cells and basal control (HEKa cells): 1.98 Fold change
PCDH1 Fold change between treated cells and basal control (HEKa cells): 2.41 Fold change
PKP2 Fold change between treated cells and basal control (HEKa cells): 1.72 Fold change
PPL Fold change between treated cells and basal control (HEKa cells): 1.54 Fold change
TJP1 Fold change between treated cells and basal control (HEKa cells): 1.25 Fold change
COL3A1 Fold change between treated cells and basal control (HDFa cells; 24 hours): 1.32 Fold change
LAMA1 Fold change between treated cells and basal control (HDFa cells; 24 hours): 1.16 Fold change
TIMP2 Fold change between treated cells and basal control (HDFa cells; 24 hours): 1.35 Fold change
MMP1 Fold change between treated cells and basal control (HDFa cells; 48 hours): −1.30 Fold change
MMP3 Fold change between treated cells and basal control (HDFa cells; 48 hours): −1.69 Fold change
